In this experiment the test system is E. coli BL21. To be noted: BL21, 17 h. The procedure:
The peptide MIC was determined via the broth microdilution assay according to the EUCAST guideline, using 96-well polystyrene flat-bottom microtiter plates (BD Biosciences). Briefly, a single colony was inoculated in 5 mL Mueller-Hinton (MH) medium and incubated, while shaking at 37°C, to the end-exponential growth phase. The bacterial culture was subsequently diluted to 0.005 McFarland (McF) (~1.5x10^6 CFU/mL) with fresh MH medium. Two-fold serial peptide-dilutions were prepared in 50 μL MH medium resulting in a concentration range of 0.75 to 100 μg/mL (at least three wells for each concentration). Afterwards, 50 μL of the freshly diluted bacterial suspension (0.005 McF) was mixed with different peptide concentrations in the 96-well plate, performed in triplicates. The plate was ultimately incubated at 37°C overnight without shaking for 17 hours. The MIC was determined as the lowest peptide concentration without visible bacterial growth.

Structures are written as SMILES. Positions of bridges follow the written chain, without caps; N, C: chain ends. Residues, ends and D or L forms follow the SMILES beside them.

For `CC(C)C[C@H](NC(=O)CNC(=O)[C@H](CCCNC(=N)N)NC(=O)[C@@H]1CCCN1C(=O)[C@H](CCCNC(=N)N)NC(=O)[C@H](CCCNC(=N)N)NC(=O)[C@@H](NC(=O)[C@H](CC(C)C)NC(=O)[C@H](C)NC(=O)[C@H](CC(C)C)NC(=O)CNC(=O)[C@H](CC(C)C)NC(=O)[C@H](C)NC(=O)[C@@H](N)CCCNC(=N)N)C(C)C)C(=O)NCC(=O)N[C@@H](CC(C)C)C(=O)N[C@@H](C)C(=O)N[C@@H](CC(C)C)C(=O)N[C@H](C(=O)N[C@@H](CCCNC(=N)N)C(=O)N[C@@H](CCCNC(=N)N)C(=O)O)C(C)C` [Peptide P2_G2A] (H-RALGLALVRRPRGLGLALVRR-OH), the “BL21 MIC” value was found to be 6.25 µg/mL.

With `CC(C)C[C@H](NC(=O)CNC(=O)[C@H](CCCNC(=N)N)NC(=O)[C@@H]1CCCN1C(=O)[C@H](CCCNC(=N)N)NC(=O)[C@H](CCCNC(=N)N)NC(=O)[C@@H](NC(=O)[C@H](CC(C)C)NC(=O)[C@H](C)NC(=O)[C@H](CC(C)C)NC(=O)[C@H](C)NC(=O)[C@H](CC(C)C)NC(=O)CNC(=O)[C@@H](N)CCCNC(=N)N)C(C)C)C(=O)NCC(=O)N[C@@H](CC(C)C)C(=O)N[C@@H](C)C(=O)N[C@@H](CC(C)C)C(=O)N[C@H](C(=O)N[C@@H](CCCNC(=N)N)C(=O)N[C@@H](CCCNC(=N)N)C(=O)O)C(C)C` [Peptide P2_G4A] (H-RGLALALVRRPRGLGLALVRR-OH), the “BL21 MIC” value amounted to 6.25 µg/mL.

In the case of `CC(C)C[C@H](NC(=O)CNC(=O)[C@@H](N)CCCNC(=N)N)C(=O)NCC(=O)N[C@@H](CC(C)C)C(=O)N[C@@H](C)C(=O)N[C@@H](CC(C)C)C(=O)N[C@H](C(=O)N[C@@H](CCCNC(=N)N)C(=O)N[C@@H](CCCNC(=N)N)C(=O)N1CCC[C@H]1C(=O)N[C@@H](CCCNC(=N)N)C(=O)N[C@@H](C)C(=O)N[C@@H](CC(C)C)C(=O)NCC(=O)N[C@@H](CC(C)C)C(=O)N[C@@H](C)C(=O)N[C@@H](CC(C)C)C(=O)N[C@H](C(=O)N[C@@H](CCCNC(=N)N)C(=O)N[C@@H](CCCNC(=N)N)C(=O)O)C(C)C)C(C)C` [Peptide P2_G13A] (H-RGLGLALVRRPRALGLALVRR-OH), the “BL21 MIC” value worked out at 12.50 µg/mL.

Regarding `CC(C)C[C@H](NC(=O)CNC(=O)[C@@H](N)CCCNC(=N)N)C(=O)NCC(=O)N[C@@H](CC(C)C)C(=O)N[C@@H](C)C(=O)N[C@@H](CC(C)C)C(=O)N[C@H](C(=O)N[C@@H](CCCNC(=N)N)C(=O)N[C@@H](CCCNC(=N)N)C(=O)N1CCC[C@H]1C(=O)N[C@@H](CCCNC(=N)N)C(=O)NCC(=O)N[C@@H](CC(C)C)C(=O)N[C@@H](C)C(=O)N[C@@H](CC(C)C)C(=O)N[C@@H](C)C(=O)N[C@@H](CC(C)C)C(=O)N[C@H](C(=O)N[C@@H](CCCNC(=N)N)C(=O)N[C@@H](CCCNC(=N)N)C(=O)O)C(C)C)C(C)C` [Peptide P2_G15A] (H-RGLGLALVRRPRGLALALVRR-OH), the “BL21 MIC” value is 12.50 µg/mL.

On to `CC(C)C[C@H](NC(=O)CNC(=O)[C@H](CCCNC(=N)N)NC(=O)[C@H](CCCNC(=N)N)NC(=O)[C@@H]1CCCN1C(=O)[C@H](CCCNC(=N)N)NC(=O)[C@@H](NC(=O)[C@H](CC(C)C)NC(=O)[C@H](C)NC(=O)[C@H](CC(C)C)NC(=O)CNC(=O)[C@H](CC(C)C)NC(=O)CNC(=O)[C@H](CCCNC(=N)N)NC(=O)[C@@H](N)CCCNC(=N)N)C(C)C)C(=O)NCC(=O)N[C@@H](CC(C)C)C(=O)N[C@@H](C)C(=O)N[C@@H](CC(C)C)C(=O)N[C@H](C(=O)N[C@@H](CCCNC(=N)N)C(=O)O)C(C)C` [Peptide P2_GK_10] (H-RRGLGLALVRPRRGLGLALVR-OH), for which the “BL21 MIC” value is 12.50 µg/mL.

Turning to `CC(C)C[C@H](NC(=O)CNC(=O)[C@H](CCCNC(=N)N)NC(=O)[C@@H]1CSSC[C@H](NC(=O)[C@@H](NC(=O)[C@H](CC(C)C)NC(=O)[C@H](C)NC(=O)[C@H](CC(C)C)NC(=O)CNC(=O)[C@H](CC(C)C)NC(=O)CNC(=O)[C@@H](N)CCCNC(=N)N)C(C)C)C(=O)N[C@@H](CCCNC(=N)N)C(=O)N[C@@H](CCCNC(=N)N)C(=O)N[C@@H](CCCNC(=N)N)C(=O)N[C@@H](Cc2ccccc2)C(=O)N1)C(=O)NCC(=O)N[C@@H](CC(C)C)C(=O)N[C@@H](C)C(=O)N[C@@H](CC(C)C)C(=O)N[C@H](C(=O)N[C@@H](CCCNC(=N)N)C(=O)N[C@@H](CCCNC(=N)N)C(=O)O)C(C)C` [Peptide P2_H12_FC] (H-RGLGLALVCRRRFCRGLGLALVRR-OH; disulfide 9-14), the “BL21 MIC, SS bond” value was determined as 3.50 µg/mL and the “BL21 MIC, no SS bond” value amounted to 6.25 µg/mL.

For `CC(C)C[C@H](NC(=O)CNC(=O)[C@H](CCCNC(=N)N)NC(=O)[C@@H]1CSSC[C@H](NC(=O)[C@@H](NC(=O)[C@H](CC(C)C)NC(=O)[C@H](C)NC(=O)[C@H](CC(C)C)NC(=O)CNC(=O)[C@H](CC(C)C)NC(=O)CNC(=O)[C@@H](N)CCCNC(=N)N)C(C)C)C(=O)N[C@@H](CCCNC(=N)N)C(=O)N[C@@H](CCCNC(=N)N)C(=O)N[C@@H]([C@@H](C)O)C(=O)NCC(=O)N1)C(=O)NCC(=O)N[C@@H](CC(C)C)C(=O)N[C@@H](C)C(=O)N[C@@H](CC(C)C)C(=O)N[C@H](C(=O)N[C@@H](CCCNC(=N)N)C(=O)N[C@@H](CCCNC(=N)N)C(=O)O)C(C)C` [Peptide P2_H12_TG] (H-RGLGLALVCRRTGCRGLGLALVRR-OH; disulfide 9-14), the “BL21 MIC, SS bond” value amounted to 6.50 µg/mL and the “BL21 MIC, no SS bond” value was found to be 6.25 µg/mL.

Regarding `CC(C)C[C@H](NC(=O)CNC(=O)[C@H](CCCNC(=N)N)NC(=O)[C@@H]1CSSC[C@H](NC(=O)[C@@H](NC(=O)[C@H](CC(C)C)NC(=O)[C@H](C)NC(=O)[C@H](CC(C)C)NC(=O)CNC(=O)[C@H](CC(C)C)NC(=O)CNC(=O)[C@@H](N)CCCNC(=N)N)C(C)C)C(=O)N[C@@H](CCCNC(=N)N)C(=O)N[C@@H](CCCNC(=N)N)C(=O)N[C@H](Cc2ccccc2)C(=O)N2CCC[C@H]2C(=O)N1)C(=O)NCC(=O)N[C@@H](CC(C)C)C(=O)N[C@@H](C)C(=O)N[C@@H](CC(C)C)C(=O)N[C@H](C(=O)N[C@@H](CCCNC(=N)N)C(=O)N[C@@H](CCCNC(=N)N)C(=O)O)C(C)C` [Peptide P2_H12_fP], the “BL21 MIC, SS bond” value came to 3.13 µg/mL and the “BL21 MIC, no SS bond” value came out at 6.25 µg/mL.

Take `CC(C)C[C@H](NC(=O)CNC(=O)[C@H](CCCNC(=N)N)NC(=O)[C@@H]1CSSC[C@H](NC(=O)[C@@H](NC(=O)[C@H](CC(C)C)NC(=O)[C@H](C)NC(=O)[C@H](CC(C)C)NC(=O)CNC(=O)[C@H](CC(C)C)NC(=O)CNC(=O)[C@@H](N)CCCNC(=N)N)C(C)C)C(=O)N[C@@H](CCCNC(=N)N)C(=O)N[C@@H](CCCNC(=N)N)C(=O)N2CCC[C@@H]2C(=O)NCC(=O)N1)C(=O)NCC(=O)N[C@@H](CC(C)C)C(=O)N[C@@H](C)C(=O)N[C@@H](CC(C)C)C(=O)N[C@H](C(=O)N[C@@H](CCCNC(=N)N)C(=O)N[C@@H](CCCNC(=N)N)C(=O)O)C(C)C` [Peptide P2_H12_pG]: the “BL21 MIC, SS bond” value came to 3.13 µg/mL and the “BL21 MIC, no SS bond” value was 6.25 µg/mL.

Take `CC(C)C[C@H](NC(=O)CNC(=O)[C@H](CCCNC(=N)N)NC(=O)[C@@H]1CCCN1C(=O)[C@H](CCCNC(=N)N)NC(=O)[C@H](CCCNC(=N)N)NC(=O)[C@@H](NC(=O)[C@H](CC(C)C)NC(=O)[C@H](C)NC(=O)[C@H](CC(C)C)NC(=O)CNC(=O)[C@H](C)NC(=O)CNC(=O)[C@@H](N)CCCNC(=N)N)C(C)C)C(=O)NCC(=O)N[C@@H](CC(C)C)C(=O)N[C@@H](C)C(=O)N[C@@H](CC(C)C)C(=O)N[C@H](C(=O)N[C@@H](CCCNC(=N)N)C(=O)N[C@@H](CCCNC(=N)N)C(=O)O)C(C)C` [Peptide P2_L3A] (H-RGAGLALVRRPRGLGLALVRR-OH): the “BL21 MIC” value was determined as 12.50 µg/mL.

The record behind these values is paper PMC10065276, “Enhanced therapeutic window for antimicrobial Pept-ins by investigating their structure-activity relationship” (PLOS ONE, 2023).
